Experimental data as given in article PMC9065260 (Frontiers in Pharmacology, 2022).
Where two headings read alike, the source gives them in different places.

Key:
Experiment in all cases: Resistance index determination of drug resistance cell lines
KYSE 70 = format: cell-based; conditions: Homo sapiens
Protocol: (§1) […]. Three types of esophageal cancer cell lines KYSE70TR, KYSE410TR, and KYSE450TR which were resistant to paclitaxel, and NSCLC cell lines HCC827GR and H1650TR, which were resistant to gefitinib and paclitaxel, respectively, were also tested for the comparison purpose.

KYSE 410 = format: cell-based; conditions: Homo sapiens
Protocol: as §1

H1650 = format: cell-based; conditions: Homo sapiens
Protocol: as §1

KYSE 450 = format: cell-based; conditions: Homo sapiens
Protocol: as §1

KYSE 450TR = format: cell-based, human; conditions: for IC50: Homo sapiens, KYSE 450TR
Protocol: as §1

H1650TR = format: cell-based, human; conditions: for IC50: Homo sapiens, H1650TR
Protocol: as §1

KYSE 410TR = format: cell-based, human; conditions: for IC50: Homo sapiens, KYSE 410TR
Protocol: as §1

KYSE 70TR = format: cell-based, human; conditions: for IC50: Homo sapiens, KYSE 70TR
Protocol: as §1

## CC(=O)O[C@H]1C(=O)[C@@]2(C)[C@H]([C@H](OC(=O)c3ccccc3)[C@]3(O)C[C@H](OC(=O)[C@H](O)[C@@H](NC(=O)c4ccccc4)c4ccccc4)C(C)=C1C3(C)C)[C@]1(OC(C)=O)CO[C@@H]1C[C@@H]2O [paclitaxel]
KYSE 70; KYSE 70, 24 h, read-out: 24 h IC50
  IC50: 640 ± 43 nM
KYSE 70; KYSE 70, 48 h, read-out: 48 h IC50
  IC50: 20.2 nM
KYSE 410; KYSE 410, 24 h, read-out: 24 h IC50
  IC50: 1280 ± 69.3 nM
KYSE 410; KYSE 410, 48 h, read-out: 48 h IC50
  IC50: 52 ± 3.45 nM
H1650; NCI-H1650, 24 h, read-out: 24 h IC50
  IC50: 870 ± 43.5 nM
H1650; NCI-H1650, 48 h, read-out: 48 h IC50
  IC50: 83.3 ± 3.33 nM
KYSE 450; KYSE 450, 24 h, read-out: 24 h IC50
  IC50: 55.03 ± 0.33 nM
KYSE 450; KYSE 450, 48 h, read-out: 48 h IC50
  IC50: 7.82 ± 0.84 nM
KYSE 450TR; 24 h, read-out: 24 h IC50
  IC50: 266 ± 66.1 nM
KYSE 450TR; 48 h, read-out: 48 h IC50
  IC50: 120 ± 32.1 nM
KYSE 450TR; KYSE 450TR vs KYSE 450, 24 h IC50
  Resistance index: 4.84
KYSE 450TR; KYSE 450TR vs KYSE 450, 48 h IC50
  Resistance index: 15.38
H1650TR; H1650TR vs H1650, 24 h IC50
  Resistance index: 4.74
H1650TR; H1650TR vs H1650, 48 h IC50
  Resistance index: 7.74
H1650TR; 24 h, read-out: 24 h IC50
  IC50: 4130 ± 208 nM
H1650TR; 48 h, read-out: 48 h IC50
  IC50: 645 ± 45 nM
KYSE 410TR; 24 h, read-out: 24 h IC50
  IC50: 6400 ± 430 nM
KYSE 410TR; 48 h, read-out: 48 h IC50
  IC50: 1710 ± 86.4 nM
KYSE 410TR; KYSE 410TR vs KYSE 410, 24 h IC50
  Resistance index: 5
KYSE 410TR; KYSE 410TR vs KYSE 410, 48 h IC50
  Resistance index: 32.88
KYSE 70TR; 24 h, read-out: 24 h IC50
  IC50: 4920 ± 274 nM
KYSE 70TR; 48 h, read-out: 48 h IC50
  IC50: 1120 ± 35.2 nM
KYSE 70TR; KYSE 70TR vs KYSE 70, 24 h IC50
  Resistance index: 7.69
KYSE 70TR; KYSE 70TR vs KYSE 70, 48 h IC50
  Resistance index: 56
